The results in this text go back to patent publication US10526316B2, “Quinoxaline and pyridopyrazine derivatives as PI3Kβ inhibitors” (Janssen Pharmaceutica NV, priority 2015, dated 2020).

The target in one experiment is T1, PI3Kβ (Homo sapiens, UniProt P42338).
T1 construct: purchased DiscoveRx Corporation, San Diego (contract service, KINOMEscan)
Put plainly: Enzyme binding assay (KINOMEscan, DiscoveRx). As to conditions: PIK3Cβ_h, read-out: Kd PIK3Cβ_h. In outline:
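Kinase binding affinities were measured with KINOMEscan technology. Results are given as Kd, the inhibitor binding constant, in nM.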

The target in a further experiment is T2, PI3Kδ (Homo sapiens, UniProt O00329).
T2 construct: purchased DiscoveRx Corporation, San Diego (contract service, KINOMEscan)
T2 sequence (O00329 1-1044): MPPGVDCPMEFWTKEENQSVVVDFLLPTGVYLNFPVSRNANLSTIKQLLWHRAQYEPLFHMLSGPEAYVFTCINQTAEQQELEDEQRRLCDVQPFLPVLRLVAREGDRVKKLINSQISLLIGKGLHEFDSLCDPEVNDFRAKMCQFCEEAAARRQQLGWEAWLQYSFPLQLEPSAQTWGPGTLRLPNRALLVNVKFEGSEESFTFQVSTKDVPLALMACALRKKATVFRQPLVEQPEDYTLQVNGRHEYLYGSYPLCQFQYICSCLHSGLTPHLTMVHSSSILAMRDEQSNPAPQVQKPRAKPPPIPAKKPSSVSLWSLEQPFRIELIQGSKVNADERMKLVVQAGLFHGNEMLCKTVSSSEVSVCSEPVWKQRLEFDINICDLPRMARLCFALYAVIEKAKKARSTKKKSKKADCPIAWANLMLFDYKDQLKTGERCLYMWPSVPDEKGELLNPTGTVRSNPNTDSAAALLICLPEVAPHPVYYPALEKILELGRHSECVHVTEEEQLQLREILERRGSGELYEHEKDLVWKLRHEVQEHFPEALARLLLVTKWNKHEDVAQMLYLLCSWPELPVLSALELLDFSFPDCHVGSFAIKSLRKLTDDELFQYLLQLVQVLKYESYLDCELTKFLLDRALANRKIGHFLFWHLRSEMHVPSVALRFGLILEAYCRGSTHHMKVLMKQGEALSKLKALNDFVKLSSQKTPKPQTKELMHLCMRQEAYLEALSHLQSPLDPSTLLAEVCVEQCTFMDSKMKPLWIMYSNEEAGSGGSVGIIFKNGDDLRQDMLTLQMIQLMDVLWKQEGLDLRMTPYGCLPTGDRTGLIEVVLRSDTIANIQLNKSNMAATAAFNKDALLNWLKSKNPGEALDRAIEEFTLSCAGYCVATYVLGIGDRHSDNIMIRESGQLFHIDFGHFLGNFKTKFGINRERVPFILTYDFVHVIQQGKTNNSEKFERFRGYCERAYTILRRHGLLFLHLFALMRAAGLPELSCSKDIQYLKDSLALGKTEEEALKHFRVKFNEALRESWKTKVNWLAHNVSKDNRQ
The experiment in a line: Enzyme binding assay (KINOMEscan, DiscoveRx). As to conditions: PIK3Cδ_h. In outline:
(§1)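 Binding affinities were measured on the KINOMEscan platform.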

For experiment [1], the target named is T3, kinase enzymes (Homo sapiens, UniProt P42336).
T3 construct: purchased DiscoveRx Corporation, San Diego (contract service, KINOMEscan)
T3 sequence (P42336 whole entry): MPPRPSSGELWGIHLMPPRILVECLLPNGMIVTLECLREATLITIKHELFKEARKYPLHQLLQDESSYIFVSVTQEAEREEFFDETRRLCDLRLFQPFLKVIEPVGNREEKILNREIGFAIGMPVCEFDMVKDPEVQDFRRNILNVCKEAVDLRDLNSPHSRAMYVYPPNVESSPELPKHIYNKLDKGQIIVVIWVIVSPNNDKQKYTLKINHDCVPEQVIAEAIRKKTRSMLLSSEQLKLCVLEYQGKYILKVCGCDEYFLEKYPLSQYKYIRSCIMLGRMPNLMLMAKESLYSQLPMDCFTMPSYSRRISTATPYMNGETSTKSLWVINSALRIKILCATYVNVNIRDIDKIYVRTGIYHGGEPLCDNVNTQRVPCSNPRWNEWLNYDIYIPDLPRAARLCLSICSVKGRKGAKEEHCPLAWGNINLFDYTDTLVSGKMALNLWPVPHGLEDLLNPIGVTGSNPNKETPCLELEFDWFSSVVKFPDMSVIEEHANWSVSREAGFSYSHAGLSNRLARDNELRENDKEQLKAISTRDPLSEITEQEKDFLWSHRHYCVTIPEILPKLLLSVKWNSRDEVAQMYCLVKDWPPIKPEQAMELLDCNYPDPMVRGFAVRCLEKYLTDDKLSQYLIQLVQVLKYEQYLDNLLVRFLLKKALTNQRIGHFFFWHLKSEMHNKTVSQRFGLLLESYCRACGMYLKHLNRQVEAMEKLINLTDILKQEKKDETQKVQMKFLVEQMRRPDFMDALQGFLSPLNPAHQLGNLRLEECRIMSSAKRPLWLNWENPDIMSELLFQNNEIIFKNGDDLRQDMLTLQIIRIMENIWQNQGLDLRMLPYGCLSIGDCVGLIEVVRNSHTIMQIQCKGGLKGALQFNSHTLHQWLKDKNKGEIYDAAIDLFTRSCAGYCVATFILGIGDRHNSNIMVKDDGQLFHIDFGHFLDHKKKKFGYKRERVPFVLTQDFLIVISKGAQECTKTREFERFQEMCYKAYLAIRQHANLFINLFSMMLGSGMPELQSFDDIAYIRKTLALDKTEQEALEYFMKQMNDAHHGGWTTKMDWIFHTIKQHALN
Put plainly: Enzyme binding assay (KINOMEscan, DiscoveRx), further kinases of Table A. The following applies: PIK3Cα_h. In outline: as §1

In experiment [2] the target is T4, kinase enzymes (Homo sapiens, UniProt P42345).
T4 construct: purchased DiscoveRx Corporation, San Diego (contract service, KINOMEscan)
The description is as above. As to conditions: MTOR_h. In outline:
as §1

The target of experiment [3] is T5, kinase enzymes (Homo sapiens, UniProt P48736).
T5 construct: purchased DiscoveRx Corporation, San Diego (contract service, KINOMEscan)
T5 sequence (P48736 whole entry): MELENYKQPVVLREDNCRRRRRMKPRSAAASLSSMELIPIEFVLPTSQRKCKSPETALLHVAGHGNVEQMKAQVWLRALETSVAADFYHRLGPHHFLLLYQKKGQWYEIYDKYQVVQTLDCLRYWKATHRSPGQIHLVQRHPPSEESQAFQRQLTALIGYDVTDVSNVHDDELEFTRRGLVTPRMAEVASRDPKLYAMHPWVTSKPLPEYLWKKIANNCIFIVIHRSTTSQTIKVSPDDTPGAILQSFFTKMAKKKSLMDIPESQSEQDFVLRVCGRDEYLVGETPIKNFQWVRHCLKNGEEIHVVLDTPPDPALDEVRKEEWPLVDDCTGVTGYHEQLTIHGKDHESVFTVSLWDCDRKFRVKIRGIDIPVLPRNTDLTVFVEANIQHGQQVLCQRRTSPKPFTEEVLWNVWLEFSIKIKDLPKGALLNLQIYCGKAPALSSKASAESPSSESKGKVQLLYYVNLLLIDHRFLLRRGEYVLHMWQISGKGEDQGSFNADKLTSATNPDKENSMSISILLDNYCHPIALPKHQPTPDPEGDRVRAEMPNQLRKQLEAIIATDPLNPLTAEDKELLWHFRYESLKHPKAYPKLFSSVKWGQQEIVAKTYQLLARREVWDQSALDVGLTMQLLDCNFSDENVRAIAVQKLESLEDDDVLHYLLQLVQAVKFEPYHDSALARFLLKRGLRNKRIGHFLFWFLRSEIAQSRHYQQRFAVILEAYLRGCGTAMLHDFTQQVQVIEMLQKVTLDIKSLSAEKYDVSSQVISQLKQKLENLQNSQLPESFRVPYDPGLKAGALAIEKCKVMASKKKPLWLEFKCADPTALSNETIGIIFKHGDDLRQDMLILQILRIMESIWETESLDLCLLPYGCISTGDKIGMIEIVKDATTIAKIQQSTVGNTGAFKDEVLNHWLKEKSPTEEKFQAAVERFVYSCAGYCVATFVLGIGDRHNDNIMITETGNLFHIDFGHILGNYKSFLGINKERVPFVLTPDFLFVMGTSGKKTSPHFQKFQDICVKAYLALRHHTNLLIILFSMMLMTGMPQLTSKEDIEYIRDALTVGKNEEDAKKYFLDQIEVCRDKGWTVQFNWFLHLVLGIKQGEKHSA
Described as above. The following applies: PIK3Cγ_h. The essentials:
as §1

Experiment [4] relates to Akt phosphorylated at Ser473 in PC-3 cells. Put plainly: Cellular assay: phosphorylation of Akt at Ser473 in PC-3 cells (MSD ELISA). The experiment is classed as cell-based. The following applies: PC-3 cells, 60 min compound incubation, MSD ELISA, read-out: IC50 pAkt_S473. The essentials: (§2)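 PC-3 cells were exposed to compound or 0.3% DMSO for 60 min at 37° C, 5% CO2, then lysed in ice-cold buffer. Phospho-Akt was captured on site-specific antibody-coated plates and detected with Sulfo-tag anti-total Akt by electrochemiluminescence. IC50 values came from five-concentration response curves.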
(In general: ELISA stands for enzyme-linked immunosorbent assay.)

Experiment [5] has as its system Akt phosphorylated at Thr308 in PC-3 cells. The experiment in a line: Cellular assay: phosphorylation of Akt at Thr308 in PC-3 cells (MSD ELISA). The following applies: PC-3 cells, 60 min compound incubation, MSD ELISA, read-out: IC50 pAkt_Thr308. The experiment is classed as cell-based. The essentials:
as §2

The structures appear in SMILES notation. pIC50, pKd: −log10 of the molar value. Like-named read-outs stand apart in the source and are kept apart here.

T1 sequence (P42338 whole entry): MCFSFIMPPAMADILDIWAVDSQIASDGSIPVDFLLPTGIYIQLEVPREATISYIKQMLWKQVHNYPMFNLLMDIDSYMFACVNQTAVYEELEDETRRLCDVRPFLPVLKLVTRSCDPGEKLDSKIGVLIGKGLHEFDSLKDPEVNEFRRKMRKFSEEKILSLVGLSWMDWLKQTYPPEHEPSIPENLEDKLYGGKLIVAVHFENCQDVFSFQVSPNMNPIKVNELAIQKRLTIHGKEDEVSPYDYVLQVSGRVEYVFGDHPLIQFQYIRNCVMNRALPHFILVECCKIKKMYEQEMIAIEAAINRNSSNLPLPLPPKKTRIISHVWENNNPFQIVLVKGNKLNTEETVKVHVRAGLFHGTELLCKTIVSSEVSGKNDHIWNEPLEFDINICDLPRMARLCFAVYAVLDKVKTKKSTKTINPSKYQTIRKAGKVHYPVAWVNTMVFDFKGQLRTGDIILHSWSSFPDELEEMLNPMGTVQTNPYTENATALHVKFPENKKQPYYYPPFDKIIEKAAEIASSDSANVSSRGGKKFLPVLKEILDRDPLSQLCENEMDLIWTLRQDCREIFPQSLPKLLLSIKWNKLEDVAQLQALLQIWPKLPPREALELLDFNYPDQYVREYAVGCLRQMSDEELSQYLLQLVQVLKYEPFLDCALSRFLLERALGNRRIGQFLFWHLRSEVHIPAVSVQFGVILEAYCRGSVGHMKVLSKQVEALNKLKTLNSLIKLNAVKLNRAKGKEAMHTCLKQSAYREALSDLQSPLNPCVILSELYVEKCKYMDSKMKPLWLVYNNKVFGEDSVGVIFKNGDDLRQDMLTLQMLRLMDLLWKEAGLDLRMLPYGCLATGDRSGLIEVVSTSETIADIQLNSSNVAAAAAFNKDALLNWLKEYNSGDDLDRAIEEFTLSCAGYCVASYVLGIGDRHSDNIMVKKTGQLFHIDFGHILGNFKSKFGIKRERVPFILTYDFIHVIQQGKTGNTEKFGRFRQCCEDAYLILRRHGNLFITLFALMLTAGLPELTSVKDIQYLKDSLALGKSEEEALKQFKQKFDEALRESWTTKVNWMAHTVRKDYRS

The term pKd denotes the negative decadic logarithm of the Kd, by convention in mol/L. The term pIC50 denotes −log10 of the IC50, conventionally taken in molar units. Take `CC(Nc1ccc(F)c(F)c1)c1cc(C(=O)NCCCO)cc2ncc(N3CCOCC3)nc12` (single isomer, unassigned) [Compound 280b]: the pKd on PI3Kβ is 6.09; at PI3Kδ, 4.67; at kinase enzymes [1], 4.65; at kinase enzymes [2], below 4.52; at kinase enzymes [3], 4.61. Moreover, the pIC50 in experiment [4] and in experiment [5] was below 6.29 each time.

Consider `CC(Oc1cccc(F)c1)c1cc(C(=O)O)cc2ncc(N3CCOCC3)nc12` (single isomer, unassigned) [Compound 257c], for which the pKd is 6.22 on PI3Kβ; 5.52 at PI3Kδ; 5.77 at kinase enzymes [1]; 5.78 at kinase enzymes [2]; 5.50 at kinase enzymes [3]. The pIC50 in experiment [4] and in experiment [5] was below 6.29 each time.

In the case of `CNCCNC(=O)c1cc(C(C)Oc2cc(F)cc(F)c2)c2nc(N3CCOCC3)cnc2c1` (single isomer, unassigned) [Compound 166], the pKd at PI3Kβ is 7.72; at PI3Kδ, 5.39; on kinase enzymes [1], 4.78; at kinase enzymes [2] it was 4.66; at kinase enzymes [3] it was 4.83. Further, the pIC50 in experiment [4] and in experiment [5] was below 6.29 throughout.

For the compound `CC(Nc1cc(F)cc(F)c1)c1cc(C(=O)N2CCNC(C(F)(F)F)C2)cc2ncc(N3CCOCC3)nc12` (single isomer, unassigned) [Compound 237c], the pKd at PI3Kβ was 8.40; at PI3Kδ, 6.63; on kinase enzymes [1] it was 6.43; at kinase enzymes [2], below 4.52; on kinase enzymes [3] it was 5.26. Besides, the pIC50 in experiment [4] is 7.59; in experiment [5], 7.96.

For `CC(Oc1cccc(F)c1F)c1cc(C(=O)N(C)C)cc2ncc(N3CCOCC3)nc12` (single isomer, unassigned) [Compound 74], the negative-log Kd (pKd) at PI3Kβ is 6.22; on PI3Kδ it was 5.25; on kinase enzymes [1] it was 5.07; on kinase enzymes [2] it was 4.63; at kinase enzymes [3], below 4.52. The pIC50 in experiment [4] and in experiment [5] was below 6.29 in each case.

For `CC(C)NCCNC(=O)c1cc(C(C)Nc2ccc(Cl)c(F)c2)c2nc(N3CCOCC3)cnc2c1` (single isomer, unassigned) [Compound 312b], the pKd at PI3Kβ was 7.59; at PI3Kδ it was 5.73; on kinase enzymes [1], 5.29; on kinase enzymes [2] it was 4.70; at kinase enzymes [3], 4.55. In addition, the pIC50 in experiment [4] and in experiment [5] was below 6.29 throughout.

Consider `CC(Oc1cccc(F)c1)c1cc(CO)cc2ncc(N3CCOCC3)nc12` (single isomer, unassigned) [Compound 89], for which the pKd at PI3Kβ is 6.08; at PI3Kδ it was 4.93; on kinase enzymes [1], 5.14; at kinase enzymes [2] it was 4.87; on kinase enzymes [3] it was 5.02. Also, the pIC50 in experiment [4] and in experiment [5] was below 6.29 in each case.

Regarding `CC(Oc1cc(F)cc(F)c1)c1cc(C(=O)N(C)CCO)cc2ncc(N3CCOCC3)nc12` (single isomer, unassigned) [Compound 61], the negative-log Kd (pKd) on PI3Kβ was 8.70; at PI3Kδ, 6.68; at kinase enzymes [1], 6.17; on kinase enzymes [2] it was below 4.52; at kinase enzymes [3], 5.28. For the same compound, the figures for the pIC50 in experiment [4] and in experiment [5] were 6.74 and 6.91, respectively.

With `CNCC1CCN(C(=O)c2cc(C(C)Nc3cc(F)cc(F)c3)c3nc(N4CCOCC4)cnc3c2)CC1` (stereo not drawn) [Compound 176], the pKd at PI3Kβ is 9.00; at PI3Kδ, 6.99; on kinase enzymes [1] it was 5.70; at kinase enzymes [2], below 4.52; at kinase enzymes [3], 5.46. For the same compound, the pIC50 is 7.80 in experiment [4] (Homo sapiens, PC-3, 1 h) and 7.82 in experiment [5] (Homo sapiens, PC-3, 1 h).

As for `C[C@@H]1CN(c2cnc3cc(C(=O)N(C)C)cc(C4CCCN4c4cc(F)cc(F)c4)c3n2)CCO1` (stereo partly drawn) [Compound 3], the pKd on PI3Kβ is 9.00; on PI3Kδ it was 7.70; at kinase enzymes [1], 7.33; at kinase enzymes [2] it was 4.75; on kinase enzymes [3], 6.64. The pIC50 is 8.52 in experiment [4] and around 8.52 in experiment [5].

As for `CC(Oc1ccc(Cl)c(F)c1)c1cc(C(=O)N(C)CCN(C)C)cc2ncc(N3CCOCC3)nc12` (single isomer, unassigned) [Compound 313b], the pKd is 6.52 on PI3Kβ; 5.26 at PI3Kδ; 4.84 on kinase enzymes [1]; below 4.52 at kinase enzymes [2]; below 4.52 on kinase enzymes [3]. For the same compound, the pIC50 in experiment [4] and in experiment [5] was below 6.29 throughout.

For `CCN1CCN(C(=O)c2cc(C(C)Oc3cccc(F)c3)c3nc(N4CCOCC4)cnc3c2)CC1` (stereo not drawn) [Compound 90], the pKd was 7.77 at PI3Kβ; 6.13 at PI3Kδ; 5.04 on kinase enzymes [1]; below 4.52 on kinase enzymes [2]; 4.64 at kinase enzymes [3]. Besides, the pIC50 is below 6.29 in experiment [4] (Homo sapiens, PC-3, 1 h) and below 6.29 in experiment [5] (Homo sapiens, PC-3, 1 h).

As to `CC(Nc1cc(F)cc(F)c1)c1cc(C(=O)NS(=O)(=O)C2CC2)cc2ncc(N3CCOCC3)nc12` (single isomer, unassigned) [Compound 220], the pKd on PI3Kβ is 5.56; on PI3Kδ, below 4.52; on kinase enzymes [1], 4.59; on kinase enzymes [2] it was 5.19; at kinase enzymes [3] it was 4.59. Moreover, the pIC50 in experiment [4] and in experiment [5] was below 6.29 in each case.

Regarding `CC(Nc1cc(F)c(F)c(F)c1)c1cc(C(=O)NCCN(C)C)cc2ncc(N3CCOCC3)nc12` (single isomer, unassigned) [Compound 309b], the pKd was 7.74 at PI3Kβ; 5.63 at PI3Kδ; 5.31 at kinase enzymes [1]; below 4.52 on kinase enzymes [2]; 5.25 at kinase enzymes [3]. Besides, the pIC50 in experiment [4] is 6.44; in experiment [5], 6.55.

As for `CC(Nc1cc(F)cc(F)c1)c1cc(C(=O)N2CCNC(C(F)(F)F)C2)cc2ncc(N3CCOCC3)nc12` (single isomer, unassigned) [Compound 237b], the pKd on PI3Kβ is 7.13; at PI3Kδ, 5.11; on kinase enzymes [1], 5.06; on kinase enzymes [2], below 4.52; on kinase enzymes [3], below 4.52. Moreover, the pIC50 in experiment [4] and in experiment [5] was below 6.29 throughout.

Consider `CC(Nc1cc(F)c(F)c(F)c1)c1cc(C(=O)NCCO)cc2ncc(N3CCOCC3)nc12` (single isomer, unassigned) [Compound 214], for which the pKd on PI3Kβ is 5.91; at PI3Kδ, below 4.52; at kinase enzymes [1] it was below 4.52; at kinase enzymes [2], below 4.52; at kinase enzymes [3], 5.34. The pIC50 in experiment [4] and in experiment [5] was below 6.29 throughout.

For `COC(=O)[C@H]1CCCN1C(=O)c1cc(C(C)Nc2cc(F)cc(F)c2)c2nc(N3CCOCC3)cnc2c1` (stereo partly drawn) [Compound 272], the pKd was 8.30 at PI3Kβ; 5.70 on PI3Kδ; 5.31 on kinase enzymes [1]; below 4.52 on kinase enzymes [2]; below 4.52 on kinase enzymes [3]. Also, the pIC50 in experiment [4] (Homo sapiens, PC-3, 1 h) was 6.82; in experiment [5] (Homo sapiens, PC-3, 1 h) it was around 7.07.

Regarding `CC(Nc1cc(F)cc(F)c1)c1cc(CN2CCOCC23COC3)cc2ncc(N3CCOCC3)nc12` (single isomer, unassigned) [Compound 195], the pKd at PI3Kβ was 8.70; at PI3Kδ, 6.32; at kinase enzymes [1], 5.71; at kinase enzymes [2] it was below 4.52; on kinase enzymes [3], 4.89. Also, the pIC50 in experiment [4] was around 6.99; in experiment [5] it was 7.33.
